Assay results from DBAASP.
≈ marks a conversion by molar mass, not a printed value. Where “and” joins values, the source holds several entries; their conditions need not be identical. Identical values can stand only once. Values belong to the compound of their own block, whether it stands above or below them.

Tests used:
Assay in all cases: ≥ marks a high value that may be exact or a test limit, other limits are often not marked, values filed in µg/mL are converted to µM
[1] = tested on: Salmonella enterica subsp. enterica serovar Enteritidis ATCC 13076
[2] = tested on: Pseudomonas putida ATCC 17426
[3] = tested on: Saccharomyces cerevisiae ATCC 44774
[4] = tested on: Candida albicans ATCC 10231
[5] = tested on: Streptococcus mutans ATCC 25175
[6] = tested on: Escherichia coli ATCC 27325
[7] = tested on: Bacillus subtilis ATCC 62037
[8] = tested on: Cryptococcus neoformans ATCC 34881
[9] = tested on: Staphylococcus aureus ATCC 15752
[10] = tested on: Trichoderma viride ATCC 36316
[11] = tested on: Aspergillus flavus ATCC 46283
[12] = tested on: Escherichia coli ATCC 15224
[13] = tested on: Campylobacter jejuni
[14] = tested on: Streptococcus pyogenes
[15] = tested on: Shigella flexneri ATCC 25875
[16] = tested on: Aspergillus fumigatus ATCC 16424
[17] = tested on: Staphylococcus aureus ATCC 29213
[18] = tested on: Salmonella enterica subsp. enterica serovar Typhimurium ATCC 13311
[19] = tested on: Candida albicans ATCC 32354
[20] = tested on: Pseudomonas aeruginosa
[21] = tested on: Helicobacter pylori ATCC 43526
[22] = tested on: Streptococcus pyogenes ATCC 10389
[23] = tested on: Shigella flexneri
[24] = tested on: Saccharomyces cerevisiae ATCC 24860
[25] = tested on: Shigella sonnei
[26] = tested on: Staphylococcus aureus
[27] = tested on: Shigella sonnei ATCC 25931
[28] = tested on: Aspergillus niger ATCC 20611
[29] = tested on: Escherichia coli
[30] = tested on: Campylobacter jejuni ATCC 43051
[31] = tested on: Pseudomonas aeruginosa ATCC 90271
[32] = tested on: Salmonella typhimurium
[33] = tested on: Shigella dysenteriae ATCC 9752
[34] = tested on: Escherichia coli ATCC 25922
[35] = tested on: Bacillus subtilis ATCC 6633
[36] = tested on: Micrococcus luteus ATCC 10240
[37] = tested on: Staphylococcus aureus ATCC 6538P
[38] = tested on: Staphylococcus aureus TK784
[39] = tested on: Klebsiella pneumoniae ATCC 10031
[40] = tested on: Salmonella enterica subsp. enterica serovar Typhimurium ATCC 14028
[41] = tested on: Staphylococcus epidermidis ATCC 12228
[42] = tested on: Pseudomonas aeruginosa ATCC 27853
[43] = tested on: Pseudomonas aeruginosa ATCC 9027
[44] = tested on: Shigella flexneri ATCC 203
[45] = tested on: Corynebacterium diphtheriae ATCC 8024
[46] = tested on: Staphylococcus aureus SG501
[47] = tested on: Micrococcus luteus ATCC 9341
[48] = tested on: Corynebacterium diphtheriae ATCC 8032
[49] = tested on: Streptococcus pyogenes 308A
[50] = tested on: Streptococcus pyogenes 77A
[51] = tested on: Candida albicans ATCC 36232
[52] = tested on: Proteus vulgaris ATCC 6380
[53] = tested on: Escherichia coli ATCC 2592
[54] = tested on: Bacillus subtilis ATCC 1768
[55] = tested on: Staphylococcus aureus ATCC 6538

MIC [1]: ≥ 68.4 µM | MIC [2]: ≥ 68.4 µM | MIC [3]: ≥ 68.4 µM | MIC [4]: > 68.4 µM | MIC [5]: ≥ 68.4 µM | MIC [6]: ≥ 68.4 µM | MIC [7]: ≥ 68.4 µM | MIC [8]: ≥ 68.4 µM | MIC [9]: ≥ 68.4 µM
SMILES: CC(C)[C@H](NC(=O)[C@H](CCCCN)NC(=O)CNC(=O)CNC(=O)[C@H](CCC(N)=O)NC(=O)[C@H](CCCCN)NC(=O)CNC(=O)[C@H](CCCN=C(N)N)NC(=O)CN)C(=O)N[C@@H](CCCN=C(N)N)C(=O)N[C@@H](C)C(=O)N[C@@H](CCCCN)C(=O)N[C@@H](C)C(=O)N[C@@H](CCCCN)C(=O)N[C@H](C(=O)N[C@@H](CCCN=C(N)N)C(=O)N[C@@H](CO)C(=O)N[C@@H](CO)C(=O)O)[C@@H](C)O [GRGKQGGKVRAKAKTRSS]

MIC [10]: 4.62 µM (≈ 13.2 µg/mL) | MIC [11]: 3.71 µM (≈ 10.6 µg/mL) | MIC [12]: 1.3 µM (≈ 3.7 µg/mL) | MIC [13]: 1.54 µM (≈ 4.4 µg/mL) | MIC [14]: 2.7 µM (≈ 7.7 µg/mL) | MIC [15]: 1.47 µM (≈ 4.2 µg/mL) | MIC [16]: 3.68 µM (≈ 10.5 µg/mL) | MIC [17]: 2.56 µM (≈ 7.3 µg/mL) | MIC [18]: 1.72 µM (≈ 4.9 µg/mL) | MIC [19]: 3.96 µM (≈ 11.3 µg/mL) | MIC [20]: 1.33 µM (≈ 3.8 µg/mL) | MIC [21]: 1.61 µM (≈ 4.6 µg/mL) | MIC [22]: 2.63 µM (≈ 7.5 µg/mL) | MIC [23]: 1.65 µM (≈ 4.7 µg/mL) | MIC [24]: 4.97 µM (≈ 14.2 µg/mL) | MIC [25]: 1.65 µM (≈ 4.7 µg/mL) | MIC [26]: 3.01 µM (≈ 8.6 µg/mL) | MIC [27]: 1.58 µM (≈ 4.5 µg/mL) | MIC [28]: 3.15 µM (≈ 9 µg/mL) | MIC [29]: 1.26 µM (≈ 3.6 µg/mL) | MIC [30]: 1.4 µM (≈ 4 µg/mL) | MIC [31]: 1.54 µM (≈ 4.4 µg/mL) | MIC [32]: 1.54 µM (≈ 4.4 µg/mL)
SMILES: CC[C@H](C)[C@H](NC(=O)CNC(=O)[C@H](CCC(N)=O)NC(=O)CNC(=O)[C@@H](NC(=O)[C@H](CCCCN)NC(=O)[C@H](CCC(=O)O)NC(=O)[C@@H](NC(=O)[C@H](CCCCN)NC(=O)[C@H](CCCCN)NC(=O)[C@H](Cc1ccccc1)NC(=O)[C@H](CC(C)C)NC(=O)[C@H](CCCCN)NC(=O)[C@H](Cc1c[nH]c2ccccc12)NC(=O)[C@@H](N)CCCCN)[C@@H](C)CC)C(C)C)C(=O)NCC(=O)N[C@@H](C)C(=O)N[C@H](C(=O)N[C@@H](CC(C)C)C(=O)N[C@@H](CCCCN)C(=O)N[C@H](C(=O)N[C@@H](CC(C)C)C(=O)N[C@H](C(=O)N[C@H](C(=O)NCC(=O)N[C@@H](CC(C)C)C(N)=O)[C@@H](C)O)[C@@H](C)O)C(C)C)C(C)C [KWKLFKKIEKVGQGIGAVLKVLTTGL]

MIC [33]: ≥ 32.6 µM | MIC [34]: 4.07 µM (≈ 5 µg/mL) | MIC [35]: 4.07 µM (≈ 5 µg/mL) | MIC [36]: 8.15 µM (≈ 9.99 µg/mL) | MIC [37]: 2.04 µM (≈ 2.5 µg/mL) | MIC [38]: 16.3 µM (≈ 20 µg/mL) | MIC [39]: 16.3 µM (≈ 20 µg/mL) | MIC [40]: 32.6 µM (≈ 40 µg/mL) | MIC [41]: 4.07 µM (≈ 5 µg/mL) | MIC [42]: 32.6 µM (≈ 40 µg/mL)
SMILES: CC(C)C[C@H](NC(=O)[C@H](Cc1c[nH]c2ccccc12)NC(=O)[C@H](CCCCN)NC(=O)[C@H](CC(C)C)NC(=O)[C@H](CC(C)C)NC(=O)[C@H](Cc1c[nH]c2ccccc12)NC(=O)[C@H](CCCCN)NC(=O)[C@@H](N)CC(C)C)C(=O)N[C@@H](CCCCN)C(N)=O [LKWLLKWLK]

MIC [43]: > 22 µM | MIC [44]: 6.6 µM | MIC [45]: 1.76 µM | MIC [35]: 0.22 µM | MIC [46]: 0.176 µM | MIC [36]: 1.1 µM | MIC [47]: 0.686 µM and 1.76 µM | MIC [48]: 1.32 µM | MIC [49]: 0.352 µM | MIC [41]: 1.76 µM | MIC [50]: 0.22 µM | MIC [26]: 5.5 µM | MIC [51]: 22 µM | MIC [52]: 6.6 µM | MIC [53]: 22 µM | MIC [54]: 0.44 µM | MIC [55]: 1.38 µM
SMILES: CC[C@H](C)[C@@H]1NC(=O)[C@H](CC(=O)O)NC(=O)[C@@H](NC(=O)[C@@H](NC(=O)[C@@H](N)C(C)C)[C@@H](C)O)CSSC[C@@H]2NC(=O)[C@H](Cc3ccc(O)cc3)NC(=O)CNC(=O)CNC(=O)[C@H](CO)NC(=O)[C@H](CCCN=C(N)N)NC(=O)CNC(=O)[C@H](CCCN=C(N)N)NC(=O)[C@H](Cc3ccccc3)NC(=O)[C@H](CC(C)C)NC(=O)[C@@H]3CSSC[C@@H](C(=O)N[C@@H](CCCN=C(N)N)C(=O)O)NC(=O)[C@H](C(C)C)NC(=O)[C@H](CSSC[C@H](NC(=O)[C@H](C)NC(=O)[C@H](C)NC(=O)[C@H](CC(=O)O)NC(=O)[C@H](CC(N)=O)NC(=O)[C@H](CC(C)C)NC(=O)[C@H](CCCCN)NC(=O)[C@H](C(C)C)NC(=O)CNC(=O)[C@H](CCCCN)NC(=O)[C@H](C)NC(=O)[C@H](CCC(=O)O)NC(=O)[C@H](C(C)C)NC(=O)[C@H](CO)NC(=O)[C@H](CC(C)C)NC1=O)C(=O)N[C@@H](C)C(=O)N[C@@H](C)C(=O)N[C@@H](Cc1cnc[nH]1)C(=O)N3)NC(=O)[C@H](C(C)C)NC(=O)[C@H](CCCN=C(N)N)NC(=O)[C@H](CCCCN)NC(=O)CNC(=O)[C@H](CC(N)=O)NC2=O [VTCDILSVEAKGVKLNDAACAAHCLFRGRSGGYCNGKRVCVCR]
